According to US7427590B2, “Neurothrophic components of the ADNF I complex” (The United States of America as represented by the …, priority 2001, dated 2008):
“Also recorded” adds a separate entry of the source. Like-named read-outs stand apart in the source and are kept apart here. Non-standard residues stand in square brackets, D forms with d. Residues, ends and D or L forms follow the SMILES beside them. *: point of attachment. Sta = CC(C)C[C@H](N)[C@@H](O)CC(=O)O; Isovaleryl = CC(C)CC(=O)*

Legend:
[1] = tested on: dissociated cerebral cortical cultures; type: cell-based, rat
[2] = tested on: 14 kDa purified ADNF I complex; type: cell-based; conditions: pre-treatment of ADNF I, 1 μM TTX; for Effect on survival-promoting peak of component II (10^−8 dilution): 1 μM pepstatin A or 10 μg/ml E-64; for Effect on survival-promoting peak of component I (10^−12 dilution) / Effect on survival-promoting peak of component III (10^−5 dilution): 1 μM pepstatin A, 10 μg/ml E-64 or 0.1 mM subtilisin V inhibitor
[3] = tested on: component II of the ADNF I complex; test: Blockade of component II protease activity in cell-free protease assay; type: biochemical; conditions: 10 μl of pepstatin stock (1 mg/ml methanol, diluted 1:100)
Description: FIG. 28. A time course of component II (see FIGS. 26 and 27) in a cell-free protease assay using Bz-Arg-Gly-Phe-Phe-Pro-MβNA, HCl (Cathepsin D substrate). The conditions of the assay are as follows: 10 μl of substrate (5 mg dissolved in 100 μl of DMSO (dimethyl sulfoxide), diluted to 1 ml of water), 10 μl of 10 mM CaCl2; 50 μl of component II (10^−8 dilution of the preparation characterized in FIGS. 26 and 27); and 30 μl of buffer (0.5 M dibasic phosphate, pH 7.8). For this assay, buffer, enzyme, calcium were added to 96 well culture trays. Based on glycoprotein alpha-1 acid standards on NCHO capillary, the optimum protease activity is observed at 1 fM amounts of components II.
FIG. 29. […] In culture wells treated with pepstatin, 10 μl of the stock solution (1 mg dissolved in 1 ml of methanol, diluted 1:100 with water) was added. In control wells, an addition 10 ul of methanol/water (1:100 dilution in water) alone was added. Fluorescence changes indicative of peptide subtract cleavage were monitored as described in FIG. 28.

Molecule	Survival-promoting activity of digest peptide fractions (neuronal cell counts) [1]	Effect on survival-promoting peak of component II (10^−8 dilution) [2]	Effect on survival-promoting peak of component I (10^−12 dilution) [2]	Effect on survival-promoting peak of component III (10^−5 dilution) [2]	other results
SESSGTSELLTR	Significant increases in neuronal cell counts	–	–	–	–
GPTADITLTK	Significant increases in neuronal cell counts	–	–	–	–
NNSTTYAPISANVSTALGSTAALPTAAGPV	Significant increases in neuronal cell counts	–	–	–	Another peak of activity (concentration) [1]: 10^−8 M
CC(C)CC(=O)N[C@H](C(=O)N[C@H](C(=O)N[C@@H](CC(C)C)[C@@H](O)CC(=O)N[C@@H](C)C(=O)N[C@@H](CC(C)C)[C@@H](O)CC(=O)O)C(C)C)C(C)C [Pepstatin A] (Isovaleryl-VV[Sta]A[Sta]-OH)	–	prevented	small decrease	not affected	Effect on survival-promoting peak of component II (10^−8 dilution) ([2]; listed as pepstatin A): blocked; Effect on survival-promoting peak of component II (10^−8 dilution) ([2]; listed as peptstatin A): inhibited; Effect on component II-mediated increases in protease activity [3]: prevent the component II-mediated increases in protease activity
C[C@H](NC(=O)OC(C)(C)C)C(=O)N1CCC[C@H]1C(=O)N[C@@H](Cc1ccccc1)C(=O)NOC(=O)c1ccc(Cl)cc1 [subtilisin V inhibitor, Boc-Ala-Pro-Phe-NHO-Bz-pCl]	–	–	enhanced	enhanced	–
CC(C)C[C@H](NC(=O)[C@H]1O[C@@H]1C(=O)O)C(=O)NCCCCN=C(N)N [E-64]	–	not diminished	inhibited; also recorded: prevented; also recorded: blocked	inhibited; also recorded: prevented; also recorded: blocked	–
